The values that follow are results of earlier work, collected in patent US20070292469A1, “Antimicrobial composition” (priority 2005, published 2007).

For the data set, the system named is wide range of microorganisms. The settings on record: literature statement (Block, Disinfection, Sterilization, and Preservation 4th ed. 1991).

As for monoethanolamines, the antimicrobial activity result is reported as “lack dramatic antimicrobial activity”.

Turning to “α-4-[1-tris(2-hydroxyethyl) ammonium-2-butenyl] poly[1-dimethylammonium-2-butenyl]-ω-tris(2-hydroxyethyl)ammonium chloride [polyquaternium 1]”, the antimicrobial activity result was “significant antimicrobial activity”.
